IC50 data for 25 molecules are collected here from patent publication US20240150365A1 (Hotspot Therapeutics, Inc., priority 2022, published 2024).

In general, IC50 refers to the concentration that inhibits the measured activity by half.

SMILES strings stand for the structures. Where two headings read alike, the source gives them in different places.

One assay addresses T1, MALT1 (Homo sapiens, UniProt Q9UDY8).
T1 construct: Avi-tagged FL MALT-1 (Pharmaron, stored at −70° C.); Avi tag
T1 sequence (Q9UDY8 1-824): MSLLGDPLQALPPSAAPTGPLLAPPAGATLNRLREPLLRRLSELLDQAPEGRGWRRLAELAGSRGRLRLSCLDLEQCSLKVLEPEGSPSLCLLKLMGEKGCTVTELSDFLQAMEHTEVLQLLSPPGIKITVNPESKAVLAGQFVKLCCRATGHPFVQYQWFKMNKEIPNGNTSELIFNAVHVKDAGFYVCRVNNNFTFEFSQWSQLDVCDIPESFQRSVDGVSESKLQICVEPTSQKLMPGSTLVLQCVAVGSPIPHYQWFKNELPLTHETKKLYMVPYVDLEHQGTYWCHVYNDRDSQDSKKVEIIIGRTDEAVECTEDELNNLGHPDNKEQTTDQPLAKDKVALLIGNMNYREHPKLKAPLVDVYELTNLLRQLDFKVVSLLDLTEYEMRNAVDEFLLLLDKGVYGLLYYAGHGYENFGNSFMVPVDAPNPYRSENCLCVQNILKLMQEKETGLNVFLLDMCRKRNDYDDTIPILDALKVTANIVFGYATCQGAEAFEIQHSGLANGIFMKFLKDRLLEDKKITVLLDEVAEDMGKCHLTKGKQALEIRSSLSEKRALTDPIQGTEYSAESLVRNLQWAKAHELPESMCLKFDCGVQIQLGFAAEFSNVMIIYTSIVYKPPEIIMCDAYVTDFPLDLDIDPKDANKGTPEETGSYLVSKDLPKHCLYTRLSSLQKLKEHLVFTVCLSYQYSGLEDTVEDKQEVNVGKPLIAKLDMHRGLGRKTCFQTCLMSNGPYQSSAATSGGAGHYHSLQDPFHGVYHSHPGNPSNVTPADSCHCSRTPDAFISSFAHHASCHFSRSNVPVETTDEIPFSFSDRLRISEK
As to the kind of experiment: MALT-1 Fluorogenic Peptide Cleavage Assay (MALT1 inhibition assay). Type of assay: biochemical. The following applies: Avi-tagged FL MALT-1, Ac-LRSR-AMC peptide substrate, 30 min pre-incubation, 90 min reaction. The essentials: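 IC50 from sigmoidal fits of % inhibition, with fluorescence (ex 342, em 441 nm) from AMC released from the quenched LRSR peptide after 90 min at room temperature. Full-length Avi-tagged MALT1 saw compound for 30 min first; final DMSO 2%.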

In a further assay the test system is NF-kB. The experiment in a line: NF-kB reporter assay in Jurkat cells stimulated with aCD3/aCD28/PMA. The format is cell-based. Particulars: Homo sapiens, Jurkat, read-out: NF-kB Reporter Assay IC50. The essentials:
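Stimulation used final aCD3 5 μg/mL, aCD28 5 μg/mL and PMA 0.03 μg/mL for 4 hr at 37° C, after 1 hr compound pretreatment of 25,000 serum-starved Jurkat cells per well. One-Glo luminescence gave IC50 values.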
(In general: In a reporter assay the amount or activity of a reporter protein is the signal.)

Setting [1] is: Jurkat cells, 1 hr compound incubation, aCD3/aCD28/PMA stimulation 4 hr, One-Glo readout.

On to `Cn1ncc2cccc(NS(=O)(=O)c3ccc(-c4ccn(C(F)F)n4)nc3)c21` [Example I-138, 6-(1-(Difluoromethyl)-1H-Pyrazol-3-yl)-N-(1-Methyl-1H-Indazol-7-yl)Pyridine-3-Sulfonamide], for which the IC50 against MALT1 is above 2500 nM; with NF-kB (setting [1]) it was below 400 nM.
For the molecule `COc1ncccc1-c1ccc(S(=O)(=O)Nc2cccc3cnn(C)c23)cn1` [Example I-139, 2′-Methoxy-N-(1-Methyl-1H-Indazol-7-yl)-[2,3′-Bipyridine]-5-Sulfonamide], the IC50 against MALT1 is above 2500 nM; in the assay with NF-kB (setting [1]), below 400 nM.
For `COc1ccc2cnn(C)c2c1NS(=O)(=O)c1ccc(-n2nc(C)c(C)c2C)nc1` [Example I-140, N-(6-Methoxy-1-Methyl-1H-Indazol-7-yl)-6-(3,4,5-Trimethyl-1H-Pyrazol-1-yl)Pyridine-3-Sulfonamide], the IC50 against MALT1 and in the assay with NF-kB (setting [1]) was below 400 nM throughout.
In the case of `COc1ccc2cnn(C)c2c1NS(=O)(=O)c1ccc(-n2nc(C)c(Cl)c2C)nc1` [Example I-141, 6-(4-Chloro-3,5-Dimethyl-1H-Pyrazol-1-yl)-N-(6-Methoxy-1-Methyl-1H-Indazol-7-yl)Pyridine-3-Sulfonamide], the half-maximal inhibitory concentration (IC50) on MALT1 and in the assay with NF-kB (setting [1]) was below 400 nM throughout.
Take `COc1ccc2cnn(C)c2c1NS(=O)(=O)c1ccc(-n2nc(C)cc2C)nc1` [Example I-142, 6-(3,5-Dimethyl-1H-Pyrazol-1-yl)-N-(6-Methoxy-1-Methyl-1H-Indazol-7-yl)Pyridine-3-Sulfonamide]: the IC50 at MALT1 and in the assay on NF-kB (setting [1]) was below 400 nM in each case.
`Cn1ccc2cccc(NS(=O)(=O)c3ccc(-c4cc(C(F)(F)F)n[nH]4)nc3)c21` [Example I-143, N-(1-Methyl-1H-Indol-7-yl)-6-(5-(Trifluoromethyl)-1H-Pyrazol-3-yl)Pyridine-3-Sulfonamide]: the IC50 at MALT1 and with NF-kB (setting [1]) was below 400 nM in each case.
As to `COc1ccc2cnn(C)c2c1NS(=O)(=O)c1ccc(-n2nnc(C)n2)nc1` [Example I-144, N-(6-Methoxy-1-Methyl-1H-Indazol-7-yl)-6-(5-Methyl-2H-Tetrazol-2-yl)Pyridine-3-Sulfonamide], the IC50 against MALT1 and in the assay on NF-kB (setting [1]) was above 2500 nM throughout.
Consider `Cn1ncc2cccc(NS(=O)(=O)c3ccc(-c4cnn(CCO)c4)nc3)c21` [Example I-146, 6-(1-(2-Hydroxyethyl)-1H-Pyrazol-4-yl)-N-(1-Methyl-1H-Indazol-7-yl)Pyridine-3-Sulfonamide], for which the IC50 against MALT1 and with NF-kB (setting [1]) was above 2500 nM each time.
As for `COc1ccc2cnn(C)c2c1NS(=O)(=O)c1ccc(-n2nccc2C2CC2)nc1` [Example I-147, 6-(5-Cyclopropyl-1H-Pyrazol-1-yl)-N-(6-Methoxy-1-Methyl-1H-Indazol-7-yl)Pyridine-3-Sulfonamide], the IC50 on MALT1 is above 2500 nM; in the assay with NF-kB (setting [1]), 400 to 1000 nM.
With `COc1ccc2cnn(C)c2c1NS(=O)(=O)c1ccc(-n2ncc(C)c2C)nc1` [Example I-148, 6-(4,5-Dimethyl-1H-Pyrazol-1-yl)-N-(6-Methoxy-1-Methyl-1H-Indazol-7-yl)Pyridine-3-Sulfonamide], the IC50 against MALT1 and in the assay on NF-kB (setting [1]) was below 400 nM in each case.
For `COc1ccc2cnn(C)c2c1NS(=O)(=O)c1ccc(-c2cnc(C)s2)nc1` [Example I-149, N-(6-Methoxy-1-Methyl-1H-Indazol-7-yl)-6-(2-Methylthiazol-5-yl)Pyridine-3-Sulfonamide], the IC50 on MALT1 and in the assay on NF-kB (setting [1]) was below 400 nM throughout.
Consider `COc1ccc2cnn(C)c2c1NS(=O)(=O)c1ccc(-n2cc(F)cn2)nc1` [Example I-150, 6-(4-Fluoro-1H-Pyrazol-1-yl)-N-(6-Methoxy-1-Methyl-1H-Indazol-7-yl)Pyridine-3-Sulfonamide], for which the IC50 at MALT1 and in the assay with NF-kB (setting [1]) was below 400 nM throughout.
As for `COc1ccc2cnn(C)c2c1NS(=O)(=O)c1ccc(-n2nccc2OC)nc1` [Example I-151, N-(6-Methoxy-1-Methyl-1H-Indazol-7-yl)-6-(5-Methoxy-1H-Pyrazol-1-yl)Pyridine-3-Sulfonamide], the IC50 against MALT1 and with NF-kB (setting [1]) was below 400 nM each time.
As to `CCC(=O)c1cnn(-c2ccc(S(=O)(=O)Nc3cccc4cnn(C)c34)cn2)c1` [Example I-152, N-(1-Methyl-1H-Indazol-7-yl)-6-(4-Propionyl-1H-Pyrazol-1-yl)Pyridine-3-Sulfonamide], the values for the IC50 against MALT1 and in the assay with NF-kB (setting [1]) were above 2500 nM and below 400 nM, respectively.
Take `COc1ccc2cnn(C)c2c1NS(=O)(=O)c1ccc(-n2ccc(C3CC3)n2)nc1` [Example I-153, 6-(3-Cyclopropyl-1H-Pyrazol-1-yl)-N-(6-Methoxy-1-Methyl-1H-Indazol-7-yl)Pyridine-3-Sulfonamide]: the 50% inhibitory concentration (IC50) on MALT1 and with NF-kB (setting [1]) was below 400 nM each time.
For the molecule `Cn1ncc2cccc(NS(=O)(=O)c3ccc(-c4cc[nH]c(=O)c4)nc3)c21` [Example I-154, N-(1-Methyl-1H-Indazol-7-yl)-2′-Oxo-1′,2′-Dihydro-[2,4′-Bipyridine]-5-Sulfonamide], the IC50 against MALT1 and in the assay with NF-kB (setting [1]) was above 2500 nM in each case.
Regarding `Cc1[nH]ncc1-c1ccc(S(=O)(=O)Nc2cccc3cnn(C)c23)cn1` [Example I-155, N-(1-Methyl-1H-Indazol-7-yl)-6-(5-Methyl-1H-Pyrazol-4-yl)Pyridine-3-Sulfonamide], the figures for the IC50 against MALT1 and in the assay on NF-kB (setting [1]) were above 2500 nM and below 400 nM, respectively.
For `COc1ncc2cnn(C)c2c1NS(=O)(=O)c1ccc(-n2ccc(C(F)(F)F)n2)nc1` [Example I-156, N-(6-Methoxy-1-Methyl-1H-Pyrazolo[4,3-C]Pyridin-7-yl)-6-(3-(Trifluoromethyl)-1H-Pyrazol-1-yl)Pyridine-3-Sulfonamide], the IC50 on MALT1 and with NF-kB (setting [1]) was below 400 nM throughout.
With `COc1ccc2cnn(C)c2c1NS(=O)(=O)c1ccc(-n2cc([N+](=O)[O-])cn2)nc1` [Example I-157, N-(6-Methoxy-1-Methyl-1H-Indazol-7-yl)-6-(4-Nitro-1H-Pyrazol-1-yl)Pyridine-3-Sulfonamide], the IC50 against MALT1 and in the assay on NF-kB (setting [1]) was below 400 nM throughout.
Take `Cn1c(=O)c2cccc(NS(=O)(=O)c3ccc(-n4cc(C(F)(F)F)cn4)nc3)c2n1C` [Example I-158, N-(1,2-Dimethyl-3-Oxo-2,3-Dihydro-1H-Indazol-7-yl)-6-(4-(Trifluoromethyl)-1H-Pyrazol-1-yl)Pyridine-3-Sulfonamide]: the IC50 at MALT1 and in the assay on NF-kB (setting [1]) was above 2500 nM in each case.
Turning to `Cn1ncc2ccc(O)c(NS(=O)(=O)c3ccc(-n4cc(C(F)(F)F)cn4)nc3)c21` [Example I-159, N-(6-Hydroxy-1-Methyl-1H-Indazol-7-yl)-6-(4-(Trifluoromethyl)-1H-Pyrazol-1-yl)Pyridine-3-Sulfonamide], the IC50 at MALT1 and with NF-kB (setting [1]) was below 400 nM in each case.
Consider `COc1ccc2cnn(C)c2c1NS(=O)(=O)c1ccc(-n2ccn(C)c2=O)nc1` [Example I-160, N-(6-Methoxy-1-Methyl-1H-Indazol-7-yl)-6-(3-Methyl-2-Oxo-2,3-Dihydro-1H-Imidazol-1-yl)Pyridine-3-Sulfonamide], for which the IC50 against MALT1 is 1000 to 2500 nM; in the assay on NF-kB (setting [1]), below 400 nM.
On to `COc1ccc2cnn(C)c2c1NS(=O)(=O)c1ccc(-c2noc(C)n2)nc1` [Example I-161, N-(6-Methoxy-1-Methyl-1H-Indazol-7-yl)-6-(5-Methyl-1,2,4-Oxadiazol-3-yl)Pyridine-3-Sulfonamide], for which the IC50 at MALT1 fell in the range of 1000 to 2500 nM; in the assay on NF-kB (setting [1]) it was 400 to 1000 nM.
As for `COc1ccc2cnn(C)c2c1N(C)S(=O)(=O)c1ccc(-n2cc(C(F)(F)F)cn2)nc1` [Example I-162, N-(6-Methoxy-1-Methyl-1H-Indazol-7-yl)-N-Methyl-6-(4-(Trifluoromethyl)-1H-Pyrazol-1-yl)Pyridine-3-Sulfonamide], the IC50 against MALT1 and in the assay with NF-kB (setting [1]) was below 400 nM in each case.
Consider `COc1ccc2cnn(C)c2c1N(CCN(C)C)S(=O)(=O)c1ccc(-n2cc(C(F)(F)F)cn2)nc1` [Example I-163, N-(2-(Dimethylamino)Ethyl)-N-(6-Methoxy-1-Methyl-1H-Indazol-7-yl)-6-(4-(Trifluoromethyl)-1H-Pyrazol-1-yl)Pyridine-3-Sulfonamide], for which the IC50 on MALT1 is below 400 nM; in the assay on NF-kB it was 1000 to 2500 nM.
